Laboratory results taken from patent publication US20090036380A1, “Composition And Method For Brain Tumor Therapy” (Yeda Research and Development Co., Ltd., priority 2006, published 2009).
“Also recorded” adds a separate entry of the source.

Tests used:
PC12 cells = assay: Viability / death of PC12 cells after transfection with Karet constructs (Live/dead kit, FACS, cell counting, Hoechst); assay type: cell-based, rat; conditions: for cell viability / death versus control vector: PC12, 18 hours after transfection, dead/live kit and FACS
Experimental: FIG. 5a is a bar-graph of FACS data depicting 50 percent death of PC12 cells overexpressing Karet. Shown is a FACS analysis of PC12 viability 15 hours after transfection with Ha-Karet or control vector using Live/dead kit (Molecular probes), T-test=0.003.
FIG. 5b is a series of fluorescence photomicrographs depicting death of PC12 cells caused by Karet overexpression. Shown is a live/dead kit analysis of PC12 cells overexpressing Ha-Karet (left panels) versus control vector-transfected cells (right panels). Live cell are stained in green, dead cells are stained in red. Upper panels each show red fluorescence only (left picture) and green fluorescence only (right picture) pairs, and lower panels each show combined red and green fluorescence (left picture) and light microscopy images (right picture) pairs.
FIG. 5d is a pair of Hoechst stain histology photomicrographs depicting condensation of chromatin indicating apoptosis in PC12 cells expressing Karet, but not in control cells transfected with vector only.
FIG. 5e is a histogram depicting that Karet expression induces cell death of TrkA expressing cells, which is increased by NGF treatment and is decreased by necdin. PC12 or PC12 necdin stable cell line were electroporated with Karet or GFP control and incubated with or without 50 ng/ml NGF for 12 hours. Cells were counted and result presented as percent of control.
PC12 cells were transfected with Ha Karet, PTB, non PTB and their combinations. Cells were analyzed by FACS 18 hours after transfection using the dead/live kit. N=3; * p<0.05; **p<0.001;
The lower panel is a histogram depicting that Karet-mediated cell death correlates well with expression levels of the Karet protein. PC12 Tet-on cells were electroporated with Ha-Karet cloned under inducible promoter and incubated for 24 hours with different concentrations of doxycycline. Cells transfected with Karet but not treated with doxycycline served as control. Cells were counted and the results were determined as percent of control. The upper panel is a control Western blot depicting increased Karet expression with increased concentrations of doxycycline. Cells transfected with Karet and treated with doxycycline were lysed in NP-40 buffer and subjected to SDS-PAGE analysis. Similar amount of protein was loaded and blotted for Karet expression with Ha antibody. Proteins levels were checked with anti-tubulin antibody.
FIG. 18a—PC12 were transfected with Ha Karet, Karet F217V, PTB F217V or a control vector (pcDNA3) and 18 hours after transfection the effect of Karet or Karet mutants on cell death was determined using the dead/live kit and FACS analysis. Results are presented in percentages as compared to cells transfected with the control vector. N=3 **P<0.001. […] FIG. 18b—Cells were lysed 24 hours after transfection, fractionated on SDS-PAGE and immunoblot for anti Ha (Covance).
FIG. 19 is a histogram depicting FACS analysis of Karet-induced death. PC12 cells were co-transfected with Karet and the PTB, non-PTB or the F217V mutant at different ratios (1:1, 1:2, 1:3) and 18 hours after transfection the cells were analyzed by FACS using the dead/live kit.
Viability of cells was evaluated using the Live/dead viability/cytotoxicity kit (Cat. No. L-3224), Molecular Probes, Inc., Eugene, Oreg., USA, according to manufacturer's instructions.

Hek cells = assay: Viability (XTT) and morphology of Hek cells co-transfected with Karet and receptors; assay type: cell-based, human; conditions: 24 hours after transfection; for cell morphology: microscope
Experimental: FIGS. 21a-q are photomicrographs of Hek cells 24 hours after transfection with karet, Trk receptors, EGFR and/or P75 constructs. […] FIG. 21a—cells transfected with TrkA and pcDNA3; FIG. 21b—TrkA and Karet; FIG. 21c—TrkA and Karet F217V; FIG. 21d—Karet and pcDNA4; FIG. 21e—Karet F217V and pcDNA4; FIG. 21f—TrIcA and pcDNA3; FIG. 21g—TrkB and pcDNA3; FIG. 21h—TrkC and pcDNA3; FIG. 21i—TrkA and Karet;
FIG. 21j—TrkB and Karet; FIG. 21k—TrkC and Karet; FIG. 21l—Karet and pcDNA3; FIG. 21m—TrkC (low concentration) and pcDNA3; FIG. 21n—EGFR-Flag and pcDNA3; FIG. 21o—p75 and pcDNA3; FIG. 21p—EGFR-Flag and Ha-Karet; FIG. 21q—p75 and Ha-Karet.
FIGS. 22a-b are histograms depicting the effect of co-transfection of Karet and TrkA on cell death in Hek (FIG. 22a) or NNR5 (FIG. 22b) cells. FIG. 22a—Hek cells were co-transfected with Karet or control vector and TrkA, TrkB and TrkC. Viability of the cells was measured 24 hours after transfection by XTT. *p<0.05; FIG. 22b—NNR5 cells were co-transfected with Karet or control vector and TrkA, TrkB and TrkC. Cells were analyzed by FACS 24 hours after transfection using the dead/live kit. ** p<0.001.
FIG. 23 is a histogram depicting the effect of co-transfection of EGFR and Karet on cell death in Hek cells. Hek cells were co-transfected with Karet or control vector and p75, EGFR and PTB. Viability of the cells was measured 24 hours after transfection by XTT. ** p<0.001.
Cell proliferation was evaluated using the Cell proliferation assay with XTT reagent (Cat. No. 20-300-1000), Biological Industries, Beth Haemek, Israel, according to manufacturer's instructions.
To test whether Karet is capable of inducing cell death in other cells such as human HEK or NNR5 cells, the cells were transfected with various receptors and Karet constructs and the effect on cell death was determined by microscopic observation of cell morphology and using cell viability assays, as follows.

[1] = Hek cells co-transfected with TrkA

Karet F217V: full-length mouse Karet with phenyl alanine at position 217 point mutated to valine
cell viability / death versus control vector (PC12 cells): do not cause death; also recorded: does not induce cell death
effect on Karet-induced death in competition assay (PC12 cells; PC12 co-transfected with Karet at ratios 1:1, 1:2, 1:3, FACS 18 hours after transfection): reduced Karet-induced death
cell morphology (Hek cells; [1]): transfection-induced cell death

Karet: full-length mouse Karet protein (SEQ ID NO:1), PTB domain protein, expressed from pcDNA3 with HA tag
cell viability / death versus control vector (PC12 cells): significant reduction in the viability
cell death versus Karet expression level (PC12 cells; PC12 Tet-on cells, 24 hours, different concentrations of doxycycline): well correlated with expression levels of the Karet protein
Hoechst staining (PC12 cells; PC12 cells expressing Karet versus control-transfected cells): condensed chromatin indicating apoptotic death
decrease in living cells (Hek cells; HEK cells co-transfected with Karet and TrkA, XTT): 50%
decrease in cell viability (Hek cells; Hek cells co-transfected with EGFR and Karet, XTT): 40%
cell morphology (Hek cells; Hek cells co-transfected with EGFR): morphology change which is consistent with cell death
cell morphology (Hek cells; [1]): morphology change which is consistent with cell death
